The values below come from ChEMBL document CHEMBL1143142, “5-Substituted 1H-pyrrolo[3,2-b]pyridines as inhibitors of gastric acid secretion” (Bioorg Med Chem, 2008).

For orientation: IC50 means the concentration needed to halve the response being measured. As a reminder, the pKa is the negative logarithm of the acid dissociation constant. A lower pKa goes with a stronger acid or weaker base. By logD is commonly meant lipophilicity at a set pH, counting ionised and neutral species.

The nature of data set [1]: Inhibition of hog gastric mucosa H/+K+ ATPase. It counts as tissue-based.
The next data set relates to Gastric gland. Description: Inhibition of gastric acid secretion in rabbit gastric gland assessed as accumulation of 14C]-[…]. It is filed as functional, tissue-based. Particulars: Oryctolagus cuniculus.
A short description of data set [2]: Dissociation constant, pKa of the compound. It counts as physicochemical.
Data set [3] can be described thus: Distribution coefficient, log D at pH 7.4. Particulars: octanol/water.

On to `Cc1cc2nc(C(=O)N(C)C)cc(NCc3c(C)cccc3C)c2[nH]1`, for which the “Log IC50” value in data set [1] is -6.1. Moreover, the IC50 in the data set with Gastric gland is 2.51 µM. Moreover, in data set [2], the pKa amounted to 7.3. The compound also yielded a logD in data set [3] of 3.62.
Turning to `Cc1cccc(C)c1CNc1cc(C(=O)N(C)C)nc2c(CO)c(C)[nH]c12`, the “Log IC50” value in data set [1] was -5.6. In addition, the IC50 with Gastric gland was 63.1 µM. The same compound displayed a pKa in data set [2] of 7.2. Moreover, in data set [3], the log distribution coefficient (logD) turned out to be 2.95.
`CCc1cccc(C)c1CNc1cc(C(=O)N(C)C)nc2c(CO)c(C)[nH]c12`: the “Log IC50” value in data set [1] was -5.7. Also, the IC50 with Gastric gland is 50.1 µM. Also, the pKa in data set [2] came out at 7.07. Also, in data set [3], the logD was 3.27.
For the compound `CNC(=O)c1cc(NCc2c(C)cccc2C)c2[nH]c(C)cc2n1`, the “Log IC50” value in data set [1] is recorded as -5.5. For the same compound, in the data set on Gastric gland, the IC50 is 1.58 µM. In data set [2], this compound displayed a pKa of 7.33. The same compound came in with a logD in data set [3] of 2.96.
For the compound `CCc1cccc(C)c1CNc1cc(C(=O)N(C)C)nc2cc(C)[nH]c12`, the “Log IC50” value in data set [1] was -5.9. Moreover, the IC50 with Gastric gland was 3.16 µM. Also, the pKa in data set [2] stood at 7.39. This compound also displayed a logD in data set [3] of 4.1.
Turning to `Cc1cccc(C)c1CNc1cc(C(=O)N(C)C)nc2c(C)c(C)[nH]c12`, in data set [1], the “Log IC50” value is -6.9. Also, the IC50 in the data set on Gastric gland is 0.251 µM. The pKa in data set [2] was determined as 7.56.
As for `Cc1cccc(C)c1CNc1cc(C(=O)N(C)C)nc2c(C)c(C)n(Cc3ccccc3)c12`, the “Log IC50” value in data set [1] was -5.1. Moreover, in the data set on Gastric gland, the IC50 was 1 µM. Moreover, the pKa in data set [2] was 6.86. The logD in data set [3] was determined as 5.2.
With `Cc1cccc(C)c1CNc1cc(C(=O)N(C)C)nc2c(Br)c(C)[nH]c12`, the “Log IC50” value in data set [1] was -5. Moreover, the IC50 in the data set with Gastric gland was 3.16 µM. The pKa in data set [2] stood at 6.02. This compound also returned a logD in data set [3] of more than 4.8.
In the same order, the values of `CCc1cccc(C)c1CNc1cc(C(=O)N(C)C)nc2c(Br)c(C)[nH]c12` are -5, 10 µM, 5.84 and more than 4.8.
For the compound `CNC(=O)c1cc(NCc2c(C)cccc2C)c2[nH]c(C)c(Br)c2n1`, the “Log IC50” value in data set [1] is on record as less than -4. Besides, the IC50 with Gastric gland is 5.01 µM. In data set [2], this compound displayed a pKa of 7.39.
On to `CCc1cccc(C)c1CNc1cc(C(=O)N(C)C)nc2c(C)c(C)[nH]c12`, for which the “Log IC50” value in data set [1] is on record as -6.6. The IC50 with Gastric gland is 0.251 µM. The pKa in data set [2] was found to be 7.57. Moreover, the logD in data set [3] was found to be 4.6.
Turning to `Cc1cccc(C)c1CNc1cc(C(=O)N(C)C)nc2c(C)c(C)n(C)c12`, the “Log IC50” value in data set [1] is on record as -4.6. Further, the concentration for half-maximal inhibition (IC50) with Gastric gland is 15.8 µM. The compound further displayed a pKa in data set [2] of 7.13. The compound also returned a logD in data set [3] of 3.53.
With `Cc1cccc(C)c1CNc1cc(C(=O)N(C)C)nc2c(CO)c(C)n(Cc3ccccc3)c12`, the “Log IC50” value in data set [1] was -4.6. The IC50 in the data set with Gastric gland was 10 µM. In data set [2], this compound yielded a pKa of 6.52. This compound registered a logD in data set [3] of 3.87.
With `Cc1cccc(C)c1CNc1cc(C(=O)N(C)C)nc2c(C)c(C)n(CC(C)O)c12` (centres undefined), in data set [1], the “Log IC50” value was -4.8. Besides, the IC50 in the data set on Gastric gland was 3.98 µM. This compound also came in with a pKa in data set [2] of 7.19. Also, the logD in data set [3] is 3.4.
